In paper PMC7761830, “Structure-Based Virtual Screening of Ultra-Large Library Yields Potent Antagonists for a Lipid GPCR” (Biomolecules, 2020):
Positions count from the first letter of the chain named. “And” between values parts separate entries of the source, which are not always exact repeats. Equal entries are not always repeated.

What was measured:
Assay type in all cases: cell-based
[1] = target: T1, wild-type CysLT1R (Homo sapiens, UniProt Q9Y271); test: IP1 production assay, antagonist mode, co-stimulation with EC80 LTD4
T1 construct: expressed in transfected cells; host or cells: HEK293 (ATCC CRL-1573), transient transfection with Lipofectamine 3000
T1 sequence (Q9Y271 1-337): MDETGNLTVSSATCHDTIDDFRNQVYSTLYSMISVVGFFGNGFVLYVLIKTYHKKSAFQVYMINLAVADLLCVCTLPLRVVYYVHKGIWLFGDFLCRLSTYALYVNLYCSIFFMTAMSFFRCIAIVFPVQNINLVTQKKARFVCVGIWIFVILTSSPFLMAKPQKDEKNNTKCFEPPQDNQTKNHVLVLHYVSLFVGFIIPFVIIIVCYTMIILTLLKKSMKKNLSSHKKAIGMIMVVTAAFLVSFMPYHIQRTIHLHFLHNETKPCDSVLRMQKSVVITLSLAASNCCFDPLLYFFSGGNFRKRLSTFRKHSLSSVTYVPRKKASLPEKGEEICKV

[2] = target: T2, wild-type CysLT2R (Homo sapiens, UniProt Q9NS75); test: as above
T2 construct: expressed in transfected cells; host or cells: HEK293 (ATCC CRL-1573), transient transfection with Lipofectamine 3000
T2 sequence (Q9NS75 1-346): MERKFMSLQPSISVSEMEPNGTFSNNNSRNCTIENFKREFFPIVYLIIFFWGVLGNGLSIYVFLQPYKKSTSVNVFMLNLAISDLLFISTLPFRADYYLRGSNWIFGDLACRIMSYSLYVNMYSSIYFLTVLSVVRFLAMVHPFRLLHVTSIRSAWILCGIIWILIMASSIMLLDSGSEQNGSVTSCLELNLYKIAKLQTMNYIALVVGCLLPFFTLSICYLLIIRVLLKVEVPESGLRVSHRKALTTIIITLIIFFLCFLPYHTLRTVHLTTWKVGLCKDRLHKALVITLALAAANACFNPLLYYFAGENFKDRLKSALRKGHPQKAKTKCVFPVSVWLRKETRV

[3] = target: T1, wild-type CysLT1R; test: IP1 production assay, antagonist mode, LTC4 (EC80) as agonist; settings: HEK293, wild-type CysLT1R, LTC4 at EC80
Protocol: (§1) All 139 selected compounds were screened in a functional assay measuring IP1 production as an indicator of Gαq activation. For this assay, we used the Cisbio IP-One kit as previously described. Human Embryonic Kidney (HEK) 293 cells (ATCC CRL-1573) between passages 5 and 25 were seeded onto poly-L-Lysine-coated 384-well plates at 20,000 cells/well and transfected with 30 ng of cDNA coding for the wild-type CysLT1R or CysLT2R receptors or for the CysLT2R mutant L129Q, using the Lipofectamine 3000 (Thermo Fisher Scientific) transfection agent. At 48 h post-transfection, the media was removed and the cells were washed with fresh Hank’s Balanced Salt Solution (HBSS). […] First, all 139 selected compounds were screened at a 30 µM concentration in both the agonist and antagonist mode in cells transiently expressing the wildtype CysLT1R or CysLT2R receptors. […] For CysLT1R, the compounds retained were BRI-12328, BRI-12334, BRI-12359, BRI-12410, BRI-12411, BRI-12417, BRI-12424, BRI-12435, BRI-12450, and BRI-12458; for CysLT2R, these were BRI-12328, BRI-12334, BRI-12359, BRI-12401, BRI-12402, BRI-12405, BRI-12410, BRI-413, BRI-12417, BRI-12424, BRI-426, BRI-427, BRI-450, BRI-453, BRI-454, BRI-458, and BRI-466. These hits were again tested in the antagonist mode with compound concentrations ranging from 1.56 µM to 100 µM, at 2-fold concentration intervals. The three best hits (BRI-12359, BRI-417, and BRI-424) were also tested using the LTC4 ligand (EC80 concentration) and in cells transiently expressing the constitutively active CysLT2R mutant L129Q. […] After compound stimulation, the cells were incubated for 1 h at 37 °C and stimulated with IP1-D2 and Ab-Crypt reagents in Lysis Buffer. The cells were then incubated at room temperature for an additional hour. The plate was read on a Tecan Genios Pro plate reader using a HTRF (homogeneous time-resolved fluorescence) filter set (λex = 320 nm, λem = 620 and 655 nm). Normalized data were plotted using either the three-parameter or four-parameter EC50/IC50 fits of GraphPad Prism 8 (San Diego). […] Data represent the means ± SEM of at least three independent experiments performed in quadruplicate. For the additional antagonist experiments performed with BRI-12359, we performed Schild analysis in order to determine pA2 values.

[4] = target: T2, wild-type CysLT2R; test: as above; settings: HEK293, wild-type CysLT2R; LTC4 at EC80
Protocol: as §1

[5] = target: T3, CysLT2R mutant L129Q (Homo sapiens, UniProt Q9NS75, L129Q); test: IP1 production assay, constitutively active mutant, direct compound stimulation (inverse agonism)
T3 construct: expressed in transfected cells; host or cells: HEK293 (ATCC CRL-1573), transient transfection with Lipofectamine 3000
T3 sequence (Q9NS75 1-346 L129Q): T2 sequence (Q9NS75 1-346) with L129Q
Protocol: as §1
This effect would be particularly interesting in the case of the L129Q CysLT2R mutant identified in uveal melanoma patients. We tested these three compounds in the functional IP1 assay using cells transiently expressing the L129Q CysLT2R mutant, directly stimulated with a range of compound concentrations (1.6 to 100 μM).

[6] = target: T4, CysLT1R-WT (Homo sapiens, UniProt Q9Y271); test: IP1 production assay, Schild analysis: fixed BRI-12359 then range of LTD4
T4 construct: expressed in transfected cells; host or cells: HEK293 (ATCC CRL-1573), transient transfection with Lipofectamine 3000
T4 sequence (Q9Y271 1-337): T1 sequence (Q9Y271 1-337)
Protocol: (§2) For this assay, we used the Cisbio IP-One kit as previously described. […] At 48 h post-transfection, the media was removed and the cells were washed with fresh Hank’s Balanced Salt Solution (HBSS). […] After compound stimulation, the cells were incubated for 1 h at 37 °C and stimulated with IP1-D2 and Ab-Crypt reagents in Lysis Buffer. The cells were then incubated at room temperature for an additional hour. […] Normalized data were plotted using either the three-parameter or four-parameter EC50/IC50 fits of GraphPad Prism 8 (San Diego). […] Data represent the means ± SEM of at least three independent experiments performed in quadruplicate.

[7] = target: T5, CysLT2R-WT (Homo sapiens, UniProt Q9NS75); test: as above
T5 construct: expressed in transfected cells; host or cells: HEK293 (ATCC CRL-1573), transient transfection with Lipofectamine 3000
T5 sequence (Q9NS75 1-346): T2 sequence (Q9NS75 1-346)
Protocol: as §2

Ki [1]: 1.03 ± 0.28 µM | remaining activity at 30 µM [1]: 5.59% | Emax ([1]; HEK293, read-out: CysLT1R (LTD4) % Max Inhibition ± SEM): 121 ± 13% | extent of inhibition of LTD4-mediated response at CysLT1R (in words) ([1]; antagonist mode, 1.5 to 100 µM): completely inhibit | Ki [2]: 6.46 ± 0.43 µM | remaining activity at 30 µM [2]: 36.2% | inhibition at 30 µM ([2]; HEK293, compound 30 µM, LTD4 at EC80, HEK293, wild-type CysLT2R, read-out: inhibition of LTD4-induced IP1 production, single-concentration screen): ≥ 50% | Emax ([2]; HEK293, read-out: CysLT2R (LTD4) % Max Inhibition ± SEM): 92 ± 15% | extent of inhibition of LTD4-induced response at CysLT2R (in words) ([2]; antagonist mode, 1.5 to 100 µM): fully abolished | CysLT1R (LTC4) % Max Inhibition ± SEM [3]: 105 ± 7% | Ki ([3]; functional Ki by Cheng-Prusoff, read-out: CysLT1R (LTC4) Ki ± SEM): 0.7 µM and 0.72 µM | CysLT2R (LTC4) % Max Inhibition ± SEM [4]: 65 ± 11% | inhibition of IP1 production by CysLT2R L129Q mutant (in words) ([5]; 100 μM compound): practically full inhibition | % max inhibition ± SEM of constitutive IP1 accumulation ([5]; HEK293 transiently expressing CysLT2R L129Q, WT non-stimulated = 0%, L129Q non-stimulated = 100%): 82 ± 11% | IC50 ([5]; HEK293 transiently expressing CysLT2R L129Q, compound 1.6 to 100 μM, no agonist, read-out: IC50 ± SEM, inhibition of constitutive IP1 accumulation): 30 to 40 µM and 32 µM | Kb [6]: 0.34 ± 0.09 µM | pA2 ± SEM ([6]; Schild analysis, CysLT1R-WT, LTD4): 6.5 ± 0.1 −log | Kb [7]: 105 ± 37 µM | pA2 ± SEM ([7]; Schild analysis, CysLT2R-WT, LTD4): 4.0 ± 0.2 −log
Structure (SMILES): NC(=O)c1ccsc1NC(=O)CSc1nnc(-c2c[nH]c3ccccc23)o1 [BRI-12359]
